# Results taken from DBAASP.
# Tests used:
# Experiment in all cases: ≥ marks a high value that may be exact or a test limit, other limits are often not marked, values filed in µg/mL are converted to µM
# [1] = test system: Pseudomonas aeruginosa PAO1
# [2] = test system: Staphylococcus aureus ATCC 25923
# Escherichia coli UB1005 = test system: Escherichia coli UB1005
# [3] = test system: Candida albicans ATCC 90028
# [4] = test system: Escherichia coli ATCC 25922
# [5] = test system: Staphylococcus aureus ATCC 29213
# [6] = test system: Pseudomonas aeruginosa ATCC 27853
# [7] = test system: Staphylococcus epidermidis ATCC 12228
# [8] = test system: Salmonella enterica subsp. enterica serovar Typhimurium ATCC 14028
# [9] = test system: Enterococcus faecalis ATCC 29212
# Candida albicans = test system: Candida albicans
# Staphylococcus aureus = test system: Staphylococcus aureus
# Escherichia coli = test system: Escherichia coli
# [10] = test system: Acinetobacter baumannii ATCC 19606
SMILES,MIC [2] [µM],MIC [3] [µM],MIC [4] [µM],MIC [6] [µM],also measured
CC[C@H](C)[C@H](NC(=O)[C@H](CCCCN)NC(=O)CNC(=O)CNC(=O)[C@H](CC(C)C)NC(=O)[C@H](CC(N)=O)NC(=O)[C@H](C)NC(=O)[C@H](C)NC(=O)[C@@H](N)CCC(=O)O)C(=O)N[C@@H](CC(C)C)C(=O)N[C@@H](CCC(=O)O)C(=O)N[C@@H](CCC(=O)O)C(=O)N[C@@H](CCCCN)C(=O)N[C@@H](CCCCN)C(=O)N[C@@H](CC(C)C)C(=O)N[C@@H](CO)C(=O)N[C@@H](CCCN=C(N)N)C(=O)N[C@@H](CC(C)C)C(=O)N1CCC[C@H]1C(=O)N1CCC[C@H]1C(=O)N[C@@H](CO)C(=O)N[C@@H](Cc1cnc[nH]1)C(=O)N[C@@H](CC(C)C)C(=O)O [EAANLGGKILEEKKLSRLPPSHL],,,> 200,,MIC [8]: > 200 µM; MIC [9]: > 200 µM
CC[C@H](C)[C@H](NC(=O)CNC(=O)[C@H](CCCCN)NC(=O)[C@@H](NC(=O)[C@H](CC(C)C)NC(=O)[C@H](CO)NC(=O)CNC(=O)[C@H](CC(C)C)NC(=O)CNC(=O)[C@H](C)NC(=O)[C@H](CCCCN)NC(=O)[C@H](CC(C)C)NC(=O)[C@@H](NC(=O)[C@H](CCC(=O)O)NC(=O)[C@H](CCCCN)NC(=O)[C@H](Cc1ccccc1)NC(=O)CN)C(C)C)C(C)C)C(=O)N1CCC[C@H]1C(=O)N[C@@H](C)C(=O)N[C@@H](Cc1cnc[nH]1)C(=O)N[C@H](C(=O)N[C@@H](C)C(=O)N[C@@H](CC(N)=O)C(N)=O)C(C)C [GFKEVLKAGLGSLVKGIPAHVAN],,,,,MIC (Candida albicans): > 400 µM; MIC (Staphylococcus aureus): 434 µM; MIC (Escherichia coli): 217 µM
CSCC[C@H](NC(=O)[C@H](CCCCN)NC(=O)[C@H](CC(C)C)NC(=O)[C@@H](N)Cc1ccccc1)C(=O)N[C@@H](CC(C)C)C(=O)N[C@@H](CCCCN)C(=O)N[C@@H](CCCCN)C(=O)N[C@@H](CC(C)C)C(=O)N[C@@H](CC(C)C)C(N)=O [FLKMLKKLL],14.1,,28.2,7.06,MIC [10]: 14.1 µM
CC(C)C[C@H](NC(=O)[C@H](C)NC(=O)[C@H](CCCCN)NC(=O)[C@H](C)NC(=O)[C@H](CC(C)C)NC(=O)[C@H](C)NC(=O)[C@H](CCCCN)NC(=O)[C@H](C)NC(=O)[C@H](C)NC(=O)[C@H](C)NC(=O)[C@H](CCCCN)NC(=O)[C@H](C)NC(=O)[C@@H](NC(=O)[C@H](C)NC(=O)[C@H](CCCCN)NC(=O)[C@H](C)NC(=O)[C@H](CC(C)C)NC(=O)[C@@H](N)Cc1ccccc1)C(C)C)C(=O)O [FLAKAVAKAAAKALAKAL],,,,,MIC (Candida albicans): 82 µM
CC[C@H](C)[C@H](NC(=O)[C@H](CCCCN)NC(=O)[C@H](CO)NC(=O)[C@H](CC(C)C)NC(=O)[C@H](CC(C)C)NC(=O)CNC(=O)[C@H](C)NC(=O)[C@@H](NC(=O)[C@H](C)NC(=O)CNC(=O)[C@@H](NC(=O)[C@@H](N)Cc1ccccc1)[C@@H](C)CC)C(C)C)C(=O)N[C@@H](Cc1ccccc1)C(N)=O [FIGAVAGLLSKIF],,,,,MIC [10]: > 29.9 µM; MIC [5]: 37.4 µM
CC[C@H](C)[C@@H]1NC(=O)[C@H](Cc2ccccc2)NC(=O)[C@@H](NC(=O)[C@H](Cc2ccccc2)NC(=O)[C@@H](NC(=O)[C@H](CCCCN)NC(=O)[C@@H]2CCCN2C(=O)[C@H](CC(C)C)NC(=O)[C@@H](NC(=O)[C@H](CCCCN)NC(=O)[C@H](C)NC(=O)[C@H](C)NC(=O)[C@@H](NC(=O)[C@H](CO)NC(=O)[C@H](C)NC(=O)[C@@H](NC(=O)[C@@H](NC(=O)[C@@H]2CCCN2C(=O)[C@H](CC(C)C)NC(=O)[C@@H](N)Cc2ccccc2)C(C)C)[C@@H](C)CC)C(C)C)C(C)C)C(C)C)CSSC[C@@H](C(=O)O)NC(=O)[C@H](CCCCN)NC(=O)[C@H](CCCCN)NC(=O)[C@H]([C@@H](C)O)NC1=O [FLPVIASVAAKVLPKVFCFITKKC],1.5,3,50,,
CC(C)C[C@H](NC(=O)[C@H](CC(C)C)NC(=O)[C@H](CCCCN)NC(=O)[C@H](CCCCN)NC(=O)[C@H](CC(C)C)NC(=O)CNC(=O)[C@H](CCCCN)NC(=O)[C@H](CC(C)C)NC(=O)[C@@H](N)Cc1ccccc1)C(N)=O [FLKGLKKLL],121,,121,7.55,MIC [10]: > 121 µM

# More lines, main results first:
MIC [2] [µM],MIC [3] [µM],MIC [4] [µM],MIC [6] [µM],SMILES,also measured
3.38,,,,CC(C)C[C@H](NC(=O)[C@H](Cc1ccc(O)cc1)NC(=O)[C@@H]1CCCN1C(=O)[C@@H]1CCCN1C(=O)[C@H](CCCCN)NC(=O)[C@@H]1CCCN1C(=O)[C@@H](N)C(C)C)C(=O)N1CCC[C@H]1C(=O)N[C@@H](CCCN=C(N)N)C(=O)N1CCC[C@H]1C(=O)N[C@@H](CCCN=C(N)N)C(=O)N1CCC[C@H]1C(=O)N1CCC[C@H]1C(=O)N[C@@H](CCCN=C(N)N)C(=O)N[C@@H](CCCN=C(N)N)C(=O)N[C@@H](CCCCN)C(=O)N[C@@H](Cc1ccc(O)cc1)C(=O)N[C@@H](CC(N)=O)C(=O)N[C@@H](Cc1cnc[nH]1)C(N)=O [VPKPPYLPRPRPPRRKYNH],MIC [1]: 27 µM; MIC (Escherichia coli UB1005): 2.11 µM
,≥ 40,20,40,CC[C@H](C)[C@H](NC(=O)[C@H](CCCN=C(N)N)NC(=O)[C@@H](N)CCCCN)C(=O)N[C@H](C(=O)N[C@@H](CCC(N)=O)C(=O)N[C@@H](CCCN=C(N)N)C(=O)N[C@@H](CCCCN)C(=O)N[C@@H](CCCCN)C(=O)N[C@@H](CC(=O)O)C(=O)N[C@@H](CCCCN)C(=O)N[C@@H](CCCCN)C(=O)N[C@@H](CCCN=C(N)N)C(=O)O)C(C)C [KRIVQRKKDKKR],MIC [5]: 40 µM
,,10,,CC[C@H](C)[C@H](NC(=O)CN)C(=O)N[C@@H](CCCCN)C(=O)N[C@@H](CCCCN)C(=O)N[C@@H](Cc1c[nH]c2ccccc12)C(=O)N[C@@H](CC(C)C)C(=O)N[C@@H](Cc1cnc[nH]1)C(=O)N[C@@H](CO)C(=O)N1CCC[C@H]1C(=O)N[C@@H](CCCCN)C(=O)N[C@@H](CCCCN)C(=O)N[C@@H](Cc1ccccc1)C(=O)N1CCC[C@H]1C(=O)N[C@@H](CCCCN)C(=O)N[C@@H](CCCCN)C(=O)N[C@@H](Cc1ccccc1)C(=O)N[C@H](C(=O)N[C@@H](CCCCN)C(=O)N[C@@H](CCCCN)C(=O)N[C@H](C(=O)N[C@@H](CCSC)C(=O)N[C@@H](CC(N)=O)C(=O)N[C@@H](CO)C(N)=O)[C@@H](C)CC)C(C)C [GIKKWLHSPKKFPKKFVKKIMNS],MIC [7]: 2.5 µM
62,,62,62,CC(C)C[C@H](NC(=O)[C@H](CC(C)C)NC(=O)[C@H](CCCCN)NC(=O)[C@@H](N)Cc1c[nH]c2ccccc12)C(=O)N[C@@H](CO)C(=O)N[C@@H](CCCCN)C(=O)N[C@@H](C)C(=O)N[C@@H](CCC(N)=O)C(=O)N[C@@H](CCC(=O)O)C(=O)N[C@@H](CCCCN)C(=O)N[C@@H](Cc1ccccc1)C(=O)NCC(=O)N[C@@H](CCCCN)C(=O)N[C@@H](CC(N)=O)C(=O)N[C@@H](CCCCN)C(=O)N[C@@H](CO)C(=O)N[C@@H](CCCN=C(N)N)C(=O)N[C@@H](CS)C(N)=O [WKLLSKAQEKFGKNKSRC],MIC [7]: 7.69 µM
,≥ 100,,,CC[C@H](C)[C@H](NC(=O)[C@H](CCCCN)NC(=O)[C@H](CC(=O)O)NC(=O)[C@H](CC(C)C)NC(=O)[C@@H](NC(=O)[C@H](CC(N)=O)NC(=O)[C@@H](NC(=O)[C@H](Cc1ccccc1)NC(=O)[C@H](CC(C)C)NC(=O)[C@H](CCCCN)NC(=O)[C@H](CCCCN)NC(=O)CN)C(C)C)C(C)C)C(=O)N[C@@H](CCCN=C(N)N)C(=O)N[C@H]1CSSC[C@@H](C(=O)O)NC(=O)CNC(=O)CNC(=O)[C@H](C)NC(=O)[C@H](C(C)C)NC(=O)[C@H](CCCCN)NC1=O [GKKLFVNVLDKIRCKVAGGC],
,10,2.5,5,CC[C@H](C)[C@H](NC(=O)[C@H](CCCN=C(N)N)NC(=O)[C@@H](N)CCCCN)C(=O)N[C@@H](C)C(=O)N[C@@H](CCC(N)=O)C(=O)N[C@@H](CCCN=C(N)N)C(=O)N[C@H](C(=O)N[C@@H](CCCCN)C(=O)N[C@@H](C)C(=O)N[C@@H](Cc1ccccc1)C(=O)N[C@@H](CC(C)C)C(=O)N[C@@H](CCCN=C(N)N)C(=O)O)[C@@H](C)CC [KRIAQRIKAFLR],MIC [5]: 20 µM
,,> 64,,CC[C@H](C)[C@H](NC(=O)[C@H](Cc1ccccc1)NC(=O)[C@@H]1CCCN1C(=O)[C@@H](NC(=O)[C@@H](N)CC(C)C)C(C)C)C(=O)NCC(=O)N[C@@H](CCCN=C(N)N)C(=O)N[C@H](C(=O)N[C@@H](CC(C)C)C(=O)NCC(=O)NCC(=O)N[C@@H](CC(C)C)C(=O)N[C@@H](CC(C)C)C(=O)N[C@@H](C)C(=O)N[C@@H](CCCN=C(N)N)C(=O)N[C@@H](Cc1ccccc1)C(N)=O)[C@@H](C)O [LVPFIGRTLGGLLARF],MIC (Staphylococcus aureus): 64 µM; MIC [9]: > 64 µM; MIC [10]: > 64 µM; MIC [5]: 16 µM
50,25,25,,CC[C@H](C)[C@H](NC(=O)[C@H](CCCCN)NC(=O)CNC(=O)[C@@H](NC(=O)[C@@H](NC(=O)[C@H](CO)NC(=O)CNC(=O)[C@H](C)NC(=O)[C@H](CCCCN)NC(=O)[C@H](CO)NC(=O)[C@H](C)NC(=O)[C@H](CCSC)NC(=O)CN)[C@@H](C)CC)C(C)C)C(=O)N[C@@H](C)C(=O)N[C@@H](CCCCN)C(=O)N[C@H](C(=O)N[C@@H](C)C(=O)N[C@@H](CC(C)C)C(=O)NCC(=O)N[C@@H](C)C(=O)N[C@@H](CC(C)C)C(N)=O)[C@@H](C)CC [GMASKAGSIVGKIAKIALGAL],
